System: E.c.-ALDC (acetolactate decarboxylase from Enterobacter cloacae)
Assay: circular dichroism at […] nm, formation of
Format: biochemical
Conditions: pH 6, 30 °C; racemic substrate 5.3-53.4 mM

Km: 12.2 mM
Compound: CC(=O)C(C)(O)C(=O)O (racemic) [(±)-AL]

Source: article PMC9090609 (RSC Advances, 2018)
